Reference: paper PMC11778240, “Synthesis and preclinical evaluation of tigilanol tiglate analogs as latency-reversing agents for the eradication of HIV” (Science Advances, 2025)
pKi: −log10 of the molar value. Values joined by “and” are separate entries in the source; they are usually repeats but may differ in a detail not shown here. Identical values can stand only once. Like-named read-outs stand apart in the source and are kept apart here.

Key:
PKC-δ = target: T1, PKC-δ (Homo sapiens, UniProt Q05655); test: Cell-free PKC competition binding assay against 3H-PDBu
T1 construct: purchased Invitrogen (Sinobiological for the SUW402 experiment)
Description: (§1) With a diverse library of compounds bearing unique functionalities on the A-, B-, and C-rings (Fig. 6), we began to explore how these modifications affect PKC binding (Fig. 7A), NF-κB activation (Fig. 7B), cell permeation and PKC translocation (Fig. 7, C and D), and latency reversal in J-Lat cells (Fig. 8). […] We conducted this assay with phosphatidyl serine vesicles in solution that mimic the cellular membrane and play a critical role in the binding of small molecules to the PKC C1 domain (Fig. 7A) ([64]).
(§2) Cell-free PKC Binding Assay
The protein kinase C (PKC) affinity of EBC-46 and EBC-46 analogs was determined via competition with 3H-phorbol-12,13-dibutyrate (3H-PDBu) as described below. This procedure entails a glass-fiber filtration method to determine bound radioligand. The method of determining the radioligand Kd is also described.
(§3) Tris HCl (Fisher, ≥ 99%, stored at room temperature)
(§4) Phosphatidylserine (Avanti Polar Lipids, porcine, 25 mg/mL CHCl3 solution, stored at - […]
(§5) Bovine serum albumin (Sigma -Aldrich, ≥ 98%, globulin free, protease free, stored at 4 […]
Human PKC-β-I-GST fusion protein (Invitrogen, aliquoted and stored at -78 °C) Human PKC-δ-GST fusion protein (Invitrogen, aliquoted and stored at -78 °C) Glass-fiber filters (Whatman GF/B)
Preparation of 3H -PDBu solution : […]
(§6) a final concentration of 500 nM.
(§7) Preparation of phosphatidylserine (PS) vesicles :
(§8) For every 96 samples, 3.5 mg phosphatidylserine (140 μL) (25 mg/mL CHCl3 solution) was concentrated by removing chloroform under reduced pressure. The phosphatidylserine residue was resuspended in freshly prepared PKC binding assay buffer (3.5 mL), capped, and then thoroughly mixed by alternating between sonicating and vortexing, in 10 second intervals for 1 minute or until a cloudy white mixture (Branson Sonifier 250, power = 2, 50% duty cycle). The resulting cloudy white mixture (1 mg/mL) was stored on ic e until use.
(§9) Preparation of the "master mix" Solution :
(§10) Constituent Stock concentration (final concentration/amount in “master mix”):
(§11) PS vesicles (0.103 mg/mL)
(§12) Deionized H2O - Final vol of 30 mL
(§13) Preparation of PKC binding assay buffer:
(§14) For every 96 samples, to a 50 mL polypropylene tube was added Tris -HCl (pH 7.4, 1 M, 1.5 mL), KCl (1 M, 3 mL), CaCl2 (0.1 M, 35 μL – conventional isoforms only), and bovine serum albumin (60 mg). This mixture was diluted to 30 mL with deionized H2O and mixed gently. The buffer was […]
(§15) Preparation of PKC isoform solution:
(§16) For every 96 samples, PKC isoform solution was prepared by dissolving a 4 μg aliquot of the indicated recombinant human PKC isoform into 26.5 mL of PKC binding assay buffer. The diluted PKC was stored on ice for immediate use.
(§17) Preparation of PKC “master mix” solution:
(§18) To the PKC-isoform solution was added 1 mg/mL PS vesicles solution (3.30 mL), and 500 nM […]
(§19) The resulting “master mix” solution was vortexed and stored on […]
(§20) Preparation of analog compound dilutions:
(§21) Compound dilutions were prepared with filtered DMSO by serially diluting from a chosen "high" concentration. For the saturation binding experiment (radioligand Kd determination), the maximum radioligand concentration used was 4.0 nM with 2-fold dilutions between data points […]
isoforms ranges from 0.3 – 0.8 nM. […]
(§22) the middle of the binding curve.
(§23) For the competition binding experiment (analog Ki determination), 7 or 14 concentrations were used to define the inhibition curve, and compounds dilutions changed by factors of 2 or √2 between data points. The concentrations were chosen such that the in-assay concentration for the data points in the middle of the binding curve were approximately equal to the IC50 of the compound (if the IC50 is unknown, an exploratory binding assay is recommended prior to Ki determination). For assays with one compound per sheet, the √2-fold dilutions were prepared for the concentrations in the middle of the curve (e.g., for SUW400, the analog dilutions used were 15000 nM, 7500 nM, […]
PKC binding assay protocol (Saturation -binding experiment and Competition -binding experiment) […]

PKC-β-I = target: T2, PKC-β-I (Homo sapiens, UniProt P05771); test: as above; settings: for PKC-β selectivity: Fig. 7A, PKC-β over PKC-δ; for logKi (best-fit value), PKC-β-I: log of Ki in nM; for PKC binding affinity and selectivity in words / decrease in PKC binding affinity / potency compared to EBC-46: PKC-β and PKC-δ
T2 construct: purchased Invitrogen
Description: as §1, §2
The protein kinase C (PKC) affinity of EBC-46 and EBC-46 analogs was determined via […]
entails a glass-fiber filtration method to determine bound radioligand. The method of determining the radioligand Kd is also described.
as §3, §4, §5
Human PKC-β-I-GST fusion protein (Invitrogen, aliquoted and stored at -78 °C) Human PKC-δ-GST fusion protein (Invitrogen, aliquoted and stored at -78 °C) Glass-fiber filters (Whatman GF/B) […]
as §6, §7, §8, §9, §10, §11, §12, §13, §14, §15, §16, §17, §18, §19, §20, §21, §22
as §23, with “in” for “in the middle of the curve (e.g., for SUW400, the analog dilutions used were 15000 nM, 7500 nM,”
PKC binding assay protocol (Saturation -binding experiment and Competition -binding experiment)
1) Glass-fiber filters were prepared by soaking them in a solution of aqueous polyethyleneimine

[1] = HotNM 2.5, HotKdNM 0.62, supplement fit, read-out: Ki (best-fit value), PKC-δ
[2] = competition against radiolabeled PDBu, Fig. 7A and text, read-out: Ki PKC-δ
[3] = log of Ki in nM, HotNM 2.5, HotKdNM 0.62
[4] = HotNM 2.5, HotKdNM 0.37, supplement fit, read-out: Ki (best-fit value), PKC-β-I
[5] = competition against radiolabeled PDBu, Fig. 7A and text, read-out: Ki PKC-β

T2 sequence (P05771 whole entry): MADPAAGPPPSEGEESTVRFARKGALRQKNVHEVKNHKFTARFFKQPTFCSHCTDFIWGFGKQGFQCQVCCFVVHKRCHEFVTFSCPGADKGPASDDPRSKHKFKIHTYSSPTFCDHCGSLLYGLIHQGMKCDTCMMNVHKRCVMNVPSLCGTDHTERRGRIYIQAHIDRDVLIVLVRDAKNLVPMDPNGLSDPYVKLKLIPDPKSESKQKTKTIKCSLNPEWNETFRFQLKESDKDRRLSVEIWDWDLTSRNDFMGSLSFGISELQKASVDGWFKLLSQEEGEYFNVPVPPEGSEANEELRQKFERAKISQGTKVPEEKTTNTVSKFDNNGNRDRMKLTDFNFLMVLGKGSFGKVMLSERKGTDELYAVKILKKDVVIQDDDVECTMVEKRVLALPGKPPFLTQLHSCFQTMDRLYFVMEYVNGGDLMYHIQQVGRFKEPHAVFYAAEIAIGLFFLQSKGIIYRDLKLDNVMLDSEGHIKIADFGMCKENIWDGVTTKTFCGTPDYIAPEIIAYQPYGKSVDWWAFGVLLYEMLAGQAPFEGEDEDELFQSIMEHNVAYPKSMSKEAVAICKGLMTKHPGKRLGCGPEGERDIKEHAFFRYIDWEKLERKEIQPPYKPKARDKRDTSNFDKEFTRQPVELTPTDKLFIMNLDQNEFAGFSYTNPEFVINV
T1 sequence (Q05655 whole entry): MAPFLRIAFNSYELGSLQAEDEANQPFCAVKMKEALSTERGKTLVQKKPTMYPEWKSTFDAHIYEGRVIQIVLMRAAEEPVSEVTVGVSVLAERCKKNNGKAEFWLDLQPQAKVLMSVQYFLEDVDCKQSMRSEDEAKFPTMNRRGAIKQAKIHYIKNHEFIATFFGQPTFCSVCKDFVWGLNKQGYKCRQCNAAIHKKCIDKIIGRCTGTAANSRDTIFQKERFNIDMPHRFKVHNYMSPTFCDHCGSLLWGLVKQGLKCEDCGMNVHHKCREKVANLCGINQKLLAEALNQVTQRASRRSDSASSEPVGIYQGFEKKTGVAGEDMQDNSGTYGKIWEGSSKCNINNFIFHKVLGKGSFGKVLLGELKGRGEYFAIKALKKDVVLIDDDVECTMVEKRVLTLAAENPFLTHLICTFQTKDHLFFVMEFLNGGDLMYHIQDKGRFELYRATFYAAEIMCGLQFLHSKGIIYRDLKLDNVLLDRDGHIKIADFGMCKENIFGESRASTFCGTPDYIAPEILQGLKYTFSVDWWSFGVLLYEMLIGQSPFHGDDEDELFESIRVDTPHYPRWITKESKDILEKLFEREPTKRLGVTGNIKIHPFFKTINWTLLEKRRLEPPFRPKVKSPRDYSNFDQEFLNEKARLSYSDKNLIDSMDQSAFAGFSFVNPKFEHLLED

Compound	pKi (PKC-δ; [1])	pKi (PKC-δ; [2])	logKi (best-fit value), PKC-δ (PKC-δ; [3])	selectivity for PKC-β over PKC-δ (PKC-β-I)	preference for binding PKC-β over PKC-δ (PKC-β-I; Discussion) [×]	PKC-β selectivity (PKC-β-I)	pKi (PKC-β-I; [4])	pKi (PKC-β-I; [5])	logKi (best-fit value), PKC-β-I (PKC-β-I; HotNM 2.5, HotKdNM 0.37)	PKC binding affinity and selectivity in words (PKC-β-I)	logKi (best-fit value), PKC-δ (PKC-δ; PKC-δ-GST from a different vendor (Sinobiological), HotNM 2.5, HotKdNM 2.94)	pKi (PKC-δ; PKC-δ-GST from a different vendor (Sinobiological), HotNM 2.5, HotKdNM 2.94, read-out: Ki (best-fit value), PKC-δ)	decrease in PKC binding affinity / potency compared to EBC-46 (PKC-β-I)
C/C=C(\C)C(=O)O[C@@H]1[C@@H](C)[C@@]2(O)[C@H]([C@@H]3C(C)(C)[C@]13OC(=O)[C@@H](C)CC)[C@@H]1O[C@]1(CO)[C@@H](O)[C@]1(O)C(=O)C(C)=C[C@H]12 [EBC-46, Tigilanol tiglate]	8.49	8.49	0.5102	twofold	2.3	2.3	8.86	8.85	0.1397	–	–	–	–
C/C=C(\C)C(=O)O[C@@H]1[C@@H](C)[C@]2(O)[C@@H]3C=C(C)C(=O)[C@@]3(O)[C@H](O)C(CO)=C[C@H]2[C@@H]2C(C)(C)[C@]12OC(=O)[C@@H](C)CC [SUW400]	8.60	8.60	0.4034	–	–	2.9	9.07	9.07	-0.07019	nearly identical binding affinity and selectivity compared to EBC-46	–	–	–
C/C=C(\C)C(=O)O[C@@H]1[C@@H](C)[C@@]2(O)[C@@H](C=C(CO)C[C@]3(O)C(=O)C(C)=C[C@@H]23)[C@@H]2C(C)(C)[C@]12OC(=O)[C@@H](C)CC [SUW402]	–	9.36	–	–	–	3.7	9.93	9.92	-0.9263	remarkable affinities in the picomolar range	-0.3561	9.36	–
CC=C(C)C(=O)OC1C(C)C2(O)C(C3OC3(CO)CC3(O)C(=O)C(C)=CC32)C2C(C)(C)C12OC(=O)C(C)CC (centres unmarked) [SUW403]	7.67	7.68	1.330	–	–	2.7	8.10	8.10	0.8975	–	–	–	approximately fivefold
C/C=C(\C)C(=O)O[C@@H]1[C@@H](C)[C@@]2(O)[C@H]([C@@H]3C(C)(C)[C@]13OC(=O)C1CCC1)[C@@H]1O[C@]1(CO)[C@@H](O)[C@]1(O)C(=O)C(C)=C[C@H]12 [SUW406]	8.12	8.12	0.8752	fourfold	–	3.8	8.70	8.70	0.2968	–	–	–	–
C/C=C(\C)C(=O)O[C@@H]1[C@@H](C)[C@@]2(O)[C@H]([C@@H]3C(C)(C)[C@]13OC(=O)[C@H](C)CC)[C@@H]1O[C@]1(CO)[C@@H](O)[C@]1(O)C(=O)C(C)=C[C@H]12 [SUW407]	8.43	8.43	0.5722	–	–	1.6	8.64	8.64	0.3637	–	–	–	–
CC[C@H](C)C(=O)O[C@@]12[C@H](OC(=O)C3(C)CC3)[C@@H](C)[C@@]3(O)[C@H]([C@@H]1C2(C)C)[C@@H]1O[C@]1(CO)[C@@H](O)[C@]1(O)C(=O)C(C)=C[C@H]13 [SUW413]	8.01	8.01	0.9851	–	–	3.9	8.61	8.60	0.3892	very similar binding affinity to both PKC-β and PKC-δ compared to SUW406	–	–	–
C/C=C(\C)C(=O)O[C@@H]1[C@@H](C)[C@@]2(O)[C@H]([C@@H]3C(C)(C)[C@]13OC(=O)N1CCCC1)[C@@H]1O[C@]1(CO)[C@@H](O)[C@]1(O)C(=O)C(C)=C[C@H]12 [SUW421]	6.71	6.72	2.288	10 fold	–	9.5	7.70	7.70 and ~7.60	1.302	–	–	–	> 10 fold
